The values below come from publication PMC8322070, “A novel orally active HDAC6 inhibitor T-518 shows a therapeutic potential for Alzheimer’s disease and tauopathy in mice” (Scientific Reports, 2021).

The structures appear in SMILES notation. Where two headings read alike, the source gives them in different places.

One data set addresses T1, human HDAC1 (Homo sapiens, UniProt Q13547).
T1 construct: purchased SignalChem Pharmaceutical Inc
The data set can be described thus: HDAC enzyme assay (HDAC-Glo I/II), HDAC1. In kind it is biochemical. The conditions noted are these: concentrations up to 10 μM. The procedure: Recombinant HDAC6, HDAC7, HDAC1 were obtained from SignalChem Pharmaceutical Inc. (Richmond, BC, Canada), and recombinant human HDAC4 was prepared at Takeda pharmaceutical company. One μL of T-518 diluted with DMSO was added to 75 μL of assay buffer (24 mM Tris–HCl (pH 7.5), 135 mM NaCl, 0.35 mM KCl, 1 mM MgCl2, 0.01% Tween 20, 0.6 mM GSH) in 384 well plates. Two μL of diluted compounds were added to 384 well plates and 2 μL of recombinant HDAC enzymes was added and then centrifuged at 1000 rpm for 10 s. The final concentrations of each HDAC enzyme were as follows, human HDAC1, 170 pM; human HDAC6, […]; human HDAC4, 68 pM; human HDAC7, 13 pM. After incubation for 60 min at room temperature, 4 μL of HDAC-Glo reagent [HDAC-Glo I/II (Promega) for HDAC6 and HDAC1, HDAC-Glo class IIa (Promega) for HDAC4 and HDAC7] was added to start the reaction. After incubation for 20 min at room temperature, the luminescence was measured by Envision plate reader (PerkinElmer, Waltham, MA, USA). For experiments under the condition of 0 min preincubation, 4 μL of HDAC-Glo reagent was added at first to the 384 well plates including diluted compounds. […] After centrifugation at 1000 rpm for 10 s. and then incubation for 20 min at room temperature, the luminescence was measured by Envision. […] The inhibitory activity of T-518 was expressed as the value of IC50. […]

Data set [1] in a line: Free fraction in a brain (Fu,b). The data set is classed as in vitro ADME. The settings on record: data not shown.
The nature of data set [2]: In vivo pharmacokinetics in plasma and hippocampus (LC-MS/MS). On the set-up: species or system C57BL mice. The settings on record: 3 mg/kg, po. The procedure: (§1) T-518, ACY-738, Ricolinostat, and Tubastatin A were synthesized in Takeda. For in vitro cellular experiments, the compounds were solubilized with DMSO and diluted in the culture medium at the indicated concentrations. For in vivo experiments, the compound was reconstituted in 0.5% methylcellulose and administered orally at the indicated doses. After administration, mouse hippocampus was isolated and homogenized in RIPA extraction buffer (50 mM Tris–HCl, 150 mM NaCl, 1% NP-40, 0.5% sodium deoxycholate, and 0.1% SDS, pH 8.0) supplemented with protease and phosphatase inhibitor cocktail (Thermo Fischer, Waltham, MA, USA). The homogenate was centrifuged at 10,000g for 15 min and the supernatant was taken as the RIPA-soluble fraction.
The compound concentration was measured by the method previously reported with modification. Briefly, the hippocampus tissues from treated mice were isolated and homogenized in 4 volumes of saline under ice-cold conditions and stored at − 80 °C until liquid chromatography-tandem mass spectrometry (LC–MS/MS) analysis. Before analysis, samples were thawed gently on ice and mixed with three volumes of acetonitrile. The acetonitrile mixtures were vortexed and centrifuged for supernatant collection. The supernatant was diluted in mobile phase A [10 mM ammonium formate and formic acid at 100:0.2 (v/v)] and injected into the LC/MS/MS system. T-518 was analyzed in multiple reaction monitoring mode using an API4000 or API5000 instrument (Applied Biosystems, Foster City, CA, USA) equipped with a Prominence Ultra-fast liquid chromatography system (Shimadzu, Kyoto, Japan) using Shimadzu Shim- pack XR-ODS (2.2 μm, 2.0 × 30 mm) column. Mobile phase B consisted of a mixture of acetonitrile and formic acid at 100:0.2 (v/v). Chromatographic separations were performed by gradient elution at a flow rate of 0.7 mL/min. Mobile phase B was held at 5% for 0.2 min, increased linearly to 99% for 1.1 min, maintained at 99% for 0.7 min, then returned to 5% in 0.01 min, followed by re-equilibration for 0.59 min. A multiple reaction monitoring was used to detect the parent and product ions for the tandem mass spectrometry of T-518, which were corresponding to m/z 494 and m/z 374, respectively, with the negative ion mode [DP; -40, EP; -10, CE; -35, CXP; -15 (arbitrary units)]. Analyst software TM (version 1.6.2) (AB SCIEX, Framingham, MA; https://sciex.com/products/software/analyst-software) was used for data acquisition and processing.

In another data set the test system is P301S tau Tg mice. Description: Novel object recognition test. The conditions noted are these: 1 and 3 mg/kg for 2 weeks. The data set is classed as in vivo, mouse. The method, then: as §1
The effect of T-518 on behavioral function was examined using the novel object recognition test: The box and objects used were purchased from BrainScience Idea (Osaka, Japan). The 30 × 30 × 35 cm gray-colored test box was used. The two objects used were pyramidal, white-colored, and ceramic (object A and A′) and cylindrical, silver, and aluminum (object B). In the acquisition phase, the identical objects (objects A and A′) were symmetrically placed in the box. Each animal was placed in the box for 5 min followed by a 24-h retention interval in the home cage. […] Time spent exploring the objects were measured during both phases. […]

In general, fraction unbound refers to free concentration divided by total concentration. Higher therefore signals much free substance. The term Tmax denotes the time at which the peak concentration occurs. What is called MRT is a mean duration of stay, worked out from the concentration-time curve.

T1 sequence (Q13547 whole entry): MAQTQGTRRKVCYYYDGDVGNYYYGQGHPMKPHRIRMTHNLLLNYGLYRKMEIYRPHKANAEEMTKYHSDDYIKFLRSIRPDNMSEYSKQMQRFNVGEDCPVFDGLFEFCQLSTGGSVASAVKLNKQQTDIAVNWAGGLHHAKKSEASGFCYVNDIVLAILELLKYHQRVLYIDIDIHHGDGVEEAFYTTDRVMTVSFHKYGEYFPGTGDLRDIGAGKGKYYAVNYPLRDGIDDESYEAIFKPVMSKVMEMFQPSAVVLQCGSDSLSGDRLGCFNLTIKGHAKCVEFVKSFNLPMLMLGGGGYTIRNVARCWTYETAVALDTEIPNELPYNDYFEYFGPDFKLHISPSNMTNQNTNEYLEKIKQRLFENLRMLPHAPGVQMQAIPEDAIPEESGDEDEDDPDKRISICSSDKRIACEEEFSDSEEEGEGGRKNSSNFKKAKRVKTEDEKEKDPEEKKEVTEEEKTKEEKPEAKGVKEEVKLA

Regarding `O=C1c2cc(-c3nnc(C(F)F)o3)cnc2CN1[C@@H]1CCCC[C@H]1NC(=O)C(F)(F)C(F)(F)F` [T-518, N-[(1R,2R)-2-{3-[5-(difluoromethyl)-1,3,4-oxadiazol-2-yl]-5-oxo-5H,6H,7H-pyrrolo[3,4-b]pyridin-6-yl}cyclohexyl]-2,2,3,3,3-pentafluoropropanamide], the “inhibition of human HDAC1 enzyme activity” value against human HDAC1 is “did not obviously inhibit”. The fraction unbound in data set [1] is 0.4. For the same molecule, the “average exposure in 24 h in hippocampus” value in data set [2] (Fu,b 0.4) is reported as around 17 nM. Further, in data set [2] (C57BL mice), the “Hippocampus AUC0–24 h” value is 202 ng·h/g. Also, the Cmax in data set [2] (C57BL, mouse, hippocampus, Fu,b 0.4, read-out: Effective Cmax in hippocampus) is around 291 nM; in data set [2] (mouse, hippocampus, C57BL mice, read-out: Hippocampus Cmax), 144 ng/g; in data set [2] (mouse, plasma, C57BL mice, read-out: Plasma Cmax) it was 1040 ng/mL. The Tmax in data set [2] (C57BL, mouse, plasma and hippocampus, matrix not given, read-out: Tmax of a single oral dose) is at most 15 min; in data set [2] (mouse, hippocampus, C57BL mice, read-out: Hippocampus Tmax), 15 min; in data set [2] (mouse, plasma, C57BL mice, read-out: Plasma Tmax), 15 min. The MRT in data set [2] (mouse, hippocampus, C57BL mice, read-out: Hippocampus MRT) turned out to be 79.8 min; in data set [2] (mouse, plasma, C57BL mice, read-out: Plasma MRT) it was 106 min. In addition, the AUC(0-t) in data set [2] (mouse, plasma, C57BL mice, read-out: Plasma AUC0–24 h) worked out at 1720 ng·h/mL. For the same molecule, in the data set on P301S tau Tg mice, the “novel object recognition deficit (preference ratio)” value is “dose-dependently ameliorated”.
